This is an account of results in the METLIN SMRT retention time set (Domingo-Almenara et al. 2019).

This data set is described as follows: gradient 5% acetonitrile 3 min, to 50% in 2 min, to 85% in 15 min, held 3 min, 100 µL/min. The conditions noted are these: column: Zorbax Extend-C18 2.1 x 50 mm; eluents: water / acetonitrile, 0.1% formic acid. The method in brief: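 Retention times come from adduct peaks that were picked computationally and then checked by hand. The standards, pure and pooled in mixtures of ~100 molecules, were run on a Zorbax Extend-C18 column (2.1 × 50 mm, 1.8 μm) at 100 μL/min with water and acetonitrile, each with 0.1% formic acid. Detection was by quadrupole time-of-flight mass spectrometry in positive and negative ionization mode, with a dead volume of 40 μL and a dwell volume of 900 μL.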
In the case of `COc1cc(-c2cccc(Cl)c2)nc2ccc(NC(C)=O)cc12`, the RP-LC retention time was found to be 668 s.

`CCc1nc(-c2csc(S(=O)(=O)N3CCCC(C(=O)Nc4ccccc4)C3)c2)no1` (stereo not given) gave an RP-LC retention time of 1030 s. The same measure for `CCOC(=O)c1noc2nc(C)nc(NCCCN3CCN(c4ccccc4)CC3)c12`: 668 s; for `Cn1cc(CC(=O)NCc2ccc(F)cc2)c2cccnc21`: 669 s. Then `Cc1noc(C)c1S(=O)(=O)N1[C@H]2CC[C@@H]1c1cnc(-c3ccc(F)cc3)nc1C2`, with 1060 s. Take `Cc1ccccc1NC(=O)C(C)n1nc(C)c2nn(-c3ccccc3)c(-n3cccc3)c2c1=O` (stereo not given): the RP-LC retention time worked out at 1090 s.

In turn, `O=C(Cn1ncccc1=O)Nc1cccc(-c2cn3c(n2)SCC3)c1` yielded an RP-LC retention time of 530 s. The compound `CCCOc1ccc(CN2C[C@@H](CO)[C@H](c3ccccn3)C2)cc1` registered an RP-LC retention time of 578 s. Then `COc1ccc(CNC(=O)CN2CCc3[nH]c4c(C)c(Cl)ccc4c(=O)c3C2)cc1`, with 638 s; and `O=S(=O)(Cc1ccccc1)N1CCC2(CCCCO2)CC1`, with 868 s; and `O=C(NCCCN1CCOCC1)c1cc2occc2c(Nc2ccccc2)n1`, with 644 s.

For `O=C(Cc1ccsc1)Nc1cccc(-c2nnc3n2CCCC3)c1`, the RP-LC retention time was determined as 668 s. The same measure for `Cc1ccc(-c2noc(Cn3ccn(-c4ccccc4)c(=O)c3=O)n2)cc1C`: 897 s; for `COc1cc(NC(=O)Cn2nc(C(=O)N3CCCC3)c3ccccc32)cc(OC)c1`: 641 s.

`O=C(Nc1nc2c(s1)CCCC2)c1cccc(C(F)(F)F)c1` returned an RP-LC retention time of 1030 s. Then `Cc1ccc(CNc2ncccc2-c2nnc(-c3ccc(Cl)cc3)o2)o1`, with 1350 s; and `COc1ccc(NC(=O)Cn2c(=O)n(-c3ccc(F)cc3)c(=O)c3c2cc(C)n3C)cc1Cl`, with 873 s; and `COc1ccc(Br)c2c1-c1nc(NC(=O)c3cccc(F)c3)sc1C2`, with 1210 s. The same measure for `COC(=O)C(C)n1cccc1-c1nc(-c2ccncc2)no1` (stereo not given): 840 s; for `COc1ccc(CCNC(=O)C2CC(=O)N(c3n[nH]c4ccccc34)C2)cc1OC` (stereo not given): 657 s; for `CCOC(=O)c1c(C)oc2nc(C)nc(NCc3ccc(OC)cc3OC)c12`: 1140 s. The same measure for `COc1cc2c(c(OC)c1O)C(=O)CO2`: 642 s.

Take `O=c1n(Cc2ccc3c(c2)OCO3)nc2c(S(=O)(=O)N3CCCCC3)cccn12`: the RP-LC retention time was 828 s. Then `COc1ccccc1CNc1nc2ccccc2nc1NS(=O)(=O)c1cccs1`, with 1050 s.

With `Fc1cccc(-c2noc(-c3ccc(N4CCN(Cc5ccc6c(c5)OCO6)CC4)nc3)n2)c1`, the RP-LC retention time stood at 834 s. Then `CC(=O)N1CCN(C(=O)C2CCCN(c3ccc(-c4ccc(C)c(C)c4)nn3)C2)CC1` (stereo not given), with 622 s; and `COc1ccc(Cc2nc(Cn3ccnc3)no2)cc1OC`, with 592 s.

In turn, `CC(=O)N1CCc2cc(CNS(=O)(=O)c3ccc(F)cc3)ccc21` registered an RP-LC retention time of 738 s. The same measure for `c1ccc(-c2nc3nccc(-c4ccccn4)n3n2)cc1`: 820 s.

In the case of `O=C(CCC1CCCC1)N1CCc2c([nH]c3ccccc23)C1c1ccc(F)cc1` (stereo not given), the RP-LC retention time was 1410 s. The same measure for `O=c1c2nc(-c3cccc(Cl)c3)cn2ccn1-c1ccc(F)cc1`: 864 s; for `Cc1ccc(CNC(=O)Cn2c(N3CCOCC3)nc(C)cc2=O)cc1`: 647 s.

As to `CSc1cccc(NC(=O)Cn2c(=O)cc(-c3nc(C(C)C)no3)c3ccccc32)c1`, the RP-LC retention time came out at 928 s. In the case of `COc1ccc(NS(=O)(=O)c2cn(C(C)C)c3ncccc23)cc1`, the RP-LC retention time stood at 840 s.

`CCOC(=O)C1CCN(C(=O)c2nnc(-c3ccc(S(=O)(=O)N(C)C)cc3)o2)CC1` returned an RP-LC retention time of 829 s. The compound `Cc1ccc(-c2nnc(-c3cccc(S(=O)(=O)NCC4CCCO4)c3)o2)cc1` (stereo not given) displayed an RP-LC retention time of 918 s. Then `CC(C)OC(=O)c1cc2ccsc2n1CC(=O)NCc1ccc(F)cc1`, with 954 s. `Cc1noc(C2CN(Cc3cc(Br)ccc3F)C2)n1`: the RP-LC retention time is 554 s. With `COc1cccc(Nc2nc3ccncc3n(C(C)C)c2=O)c1`, the RP-LC retention time stood at 680 s. The same measure for `COc1ccc(-c2nc(-c3cn(Cc4cccc(F)c4)nn3)no2)cc1OC`: 901 s. The same measure for `CCOC(=O)C1=C(C)NC2=C(C(=O)CC(C)(C)C2)C1c1ccc([N+](=O)[O-])cc1` (stereo not given): 832 s; for `COC1CCC12CCN(C(=O)c1c(C)noc1C)CC2` (stereo not given): 716 s. Then `CCOc1ccc(NC(=O)Nc2nccn(-c3cccc(F)c3)c2=O)cc1`, with 939 s; and `Cc1ccc(-c2ncc(NC(=O)c3cccs3)cn2)cc1`, with 982 s. `CCn1cc(CC(=O)NCc2ccc(F)cc2F)c2cccnc21` came in with an RP-LC retention time of 723 s.

`CCCOc1nccnc1NC1CCN(C(=O)c2ccn(CC)n2)CC1`: the RP-LC retention time worked out at 722 s. The same measure for `CCc1nc2cc(N3CCC(C(=O)NCCN4CCOCC4)CC3)cnc2nc1CC`: 581 s; for `CN(C(=O)Cc1ccc(Cl)c(Cl)c1)[C@@H](CN1CCCC1)c1ccccc1`: 718 s. Then `COc1ccc(NC(=O)NC(C(=O)N2CCc3ccccc32)C(C)C)cc1OC` (stereo not given), with 830 s; and `O=C(Cn1cccc1-c1nc(-c2ccc(Cl)cc2)cs1)N1CCN(c2ccccn2)CC1`, with 772 s.

The compound `O=C(COc1ccccc1)N1CC2CN(S(=O)(=O)c3ccc(F)cc3)CC(C1)O2` gave an RP-LC retention time of 846 s.

As to `Cc1nc2ccccc2c(=O)n1Cc1noc(-c2ccc(C(F)(F)F)cc2)n1`, the RP-LC retention time was 987 s. Compound `CCn1nccc1-c1cccc(-c2noc(-c3cccc(NC(C)=O)c3)n2)c1` displayed an RP-LC retention time of 924 s. As to `CN(C)c1cnc(-n2cc(NC(=O)c3ccc(F)cc3)cn2)nc1`, the RP-LC retention time came out at 723 s. The same measure for `O=c1c2sccc2n(Cc2nc(-c3ccccc3)no2)c(=O)n1-c1ccc(Cl)cc1`: 1040 s; for `O=c1c2cc(-c3cccs3)nn2cnn1Cc1nc(-c2cccc(Br)c2)no1`: 1150 s; for `CCCS(=O)(=O)c1nc2ccc(NS(=O)(=O)c3cc(C)ccc3C)cc2s1`: 958 s. The same measure for `O=C(NCc1ccc(Cl)cc1)C1CC(=O)N(c2n[nH]c3cccc(F)c23)C1` (stereo not given): 833 s; for `O=C(C1CCCN(c2ncnc3c2nc2n3CCCCC2)C1)N(Cc1ccco1)C1CCCCC1` (stereo not given): 1020 s; for `COc1cc(CN2CCC[C@H]2c2nc(C3CCOCC3)n[nH]2)cc(OC)c1`: 593 s.

With `CCc1nncn1C1CCN(S(=O)(=O)c2cccc(Cl)c2)CC1`, the RP-LC retention time worked out at 726 s. The same measure for `CCC(C)NC(=O)c1cnn(-c2ccc(-c3nc(C4CC4)no3)cn2)c1C` (stereo not given): 899 s; for `CC(=O)c1ccc(NC(=O)CN2C(=O)NC3(CCC(C)CC3)C2=O)cc1` (stereo not given): 762 s.

For the compound `Cc1ccc(NC(=O)Cn2c(=O)n(-c3ccccc3)c(=O)c3c2cc(C)n3C)cc1C`, the RP-LC retention time worked out at 886 s. Then `CCn1nnc2ccc(-c3noc(-c4cccc(OC)c4)n3)cc21`, with 1060 s; and `CC(C)n1cnc2cc(CNC(=O)c3ccc4c(c3)OCO4)ccc21`, with 624 s. Then `CC(C)CCNC(=O)C1Cn2cccc2C(=O)N1C` (stereo not given), with 668 s; and `O=C(NCCc1ccccc1)c1ccc2c(cnn2CC(=O)N2CCCCCC2)c1`, with 791 s. Then `O=C(CN1c2ccc(Br)cc2-c2ccccc2S1(=O)=O)NCc1cccnc1`, with 686 s. For the compound `O=S(=O)(c1cccc2nsnc12)N1CCCC1c1noc(CO)n1` (stereo not given), the RP-LC retention time is 682 s.

As to `O=C(NC1CC1)C1CCCN(c2ncnc3c2oc2ccccc23)C1` (stereo not given), the RP-LC retention time was 632 s. The same measure for `O=C(CC1CCN(S(=O)(=O)c2ccc(Cl)s2)CC1)N1CCCCC1`: 946 s; for `COc1ccc(S(=O)(=O)N2CCc3nn(CC(C)C)c(=O)n3CC2)cc1OC`: 745 s.

The compound `CCCN(CC1CCOC1)C(=O)Nc1cccc(CC)c1` (stereo not given) displayed an RP-LC retention time of 864 s. Then `Cc1ccc(Cl)cc1NC(=O)CSc1nc2ncccc2c(=O)n1CC1CCCO1` (stereo not given), with 794 s.

Compound `CCOc1ccc(CCNC(=O)c2cc(S(=O)(=O)N3CCCC3)c(C)n2C)cc1OCC` registered an RP-LC retention time of 951 s.

In the case of `Cc1cccc(-c2ncccc2CNS(=O)(=O)c2ccc(Cl)cc2)c1`, the RP-LC retention time came to 778 s.

`Cc1cc(C(=O)N2CCCCCC2c2nnc(C)o2)c(C)o1` (stereo not given): the RP-LC retention time is 755 s.

`Cc1cn(C2CC(O)C(CO)O2)c(=O)n(Cc2ccccc2)c1=O` (stereo not given): the RP-LC retention time was 697 s. The same measure for `Cc1cc(C)cc(NC(=O)Cn2ccc3ccc(-c4nnc(C)o4)cc32)c1`: 1300 s.
